# Reference: patent US7727275B2, “Drug-delivery endovascular stent and method of forming the same” (Biosensors International Group, Ltd., priority 2002, dated 2010)
# Test system: restenosis (neointimal formation) in severely injured coronary vessels
# Experiment: Swine restenosis model, "high injury" experiment: QCA and morphometric analysis 28 days after stent implant
# Assay type: in vivo, out-bred juvenile swine
# Text: The studies are summarized in Example 4.
# Briefly, the studies compare the extent of restenosis at 28 days following stent implantation, in bare metal stents, polymer-coated stents, and polymer coated stents containing high or low concentrations of sirolimus (rapamycin) and everolimus.
# It was reasoned that the most challenging treatment condition for the drug eluting stent is a severely injured vessel, as it is known that the degree of restenosis (neointimal formation) increases directly with extent of vessel injury. […]
# Drug-eluting stents using a metal wire-mesh scaffold of a corrugated ring design (i.e. S-Stent) and polymer coating were implanted in out-bred juvenile swine (alternately Yucatan Minipigs for implant studies lasting longer than 28 days), using different dosings of either the drug everolimus or the drug sirolimus. At time of implant, Quantitative Coronary Angiography (QCA) was performed to measure the diameter of the vessels both before and after stent implantation. […]
# A computerized imaging system Image Pro Plus 4.0 through an A.G. Heinze slide microscope for a PC-based system was used for histomorphometric measurements of: • 1. […] To quantify the degree of vascular injury, a score based on the amount and length of tear of the different wall structures was used. […]
compound,measurement,value
"CO[C@H]1C[C@@H]2CC[C@@H](C)[C@@](O)(O2)C(=O)C(=O)N2CCCC[C@H]2C(=O)O[C@H]([C@H](C)C[C@@H]2CC[C@@H](OCCO)[C@H](OC)C2)CC(=O)[C@H](C)/C=C(\C)[C@@H](O)[C@@H](OC)C(=O)[C@H](C)C[C@H](C)/C=C/C=C/C=C/1C [everolimus, 40-0-(2-hydroxyl)ethyl-rapamycin]",extent of restenosis / neointima formation (in words),"better than, or at least equivalent to the 180 microgram dosage of sirolimus"
